Measured values as given in paper PMC6661766, “Antimicrobial, antioxidant and cytotoxic evaluation of diazenyl chalcones along with insights to mechanism of interaction by molecular docking studies” (BMC Chemistry, 2019).
In brackets after ≈: the same amount, converted by molar mass.

Tests used:
B. cereus = assay: Antimicrobial serial tube dilution, MIC and MBC; type: cell-based, Bacillus cereus MTCC 1305; conditions: for B. cereus MIC: 24 h at 37 ± 2 °C; for MIC / MBC: Bacillus cereus; for MIC: 24 h, read-out: B. cereus MIC; for MBC: read-out: B. cereus MBC
Procedure: (§1) The synthesized diazenyl chalcones (C18 to C27) and controls (dyes A and E, and chalcone) were assessed for their antimicrobial activity by estimation of MIC and MBC/MFC values. […] The stock solutions of the test compounds and standard drugs having a concentration of 1000 µg ml^−1 were prepared by dissolving the used compounds in DMSO. The nutrient broth/Sabouraud dextrose broth was used for the serial dilution of the test compounds and referenced drugs for bacterial and fungal cultures, respectively. […] The size of the final inoculum in each test tube was taken as 5 × 10^5 CFU ml^−1. The incubation of the test and standard compounds of varying concentrations was done for 24 h at 37 ± 2 °C (bacterial culture) and for 48 h at 37 ± 2 °C (C. albicans) and for 7 d at 25 ± 2 °C (A. fumigatus). The diazenyl chalcones (C18–C27), were further evaluated for their bactericidal/fungicidal activity by estimation of MBC/MFC values. […] For proper mixing of culture media, the plates were shaken gently followed by incubation at the predefined temperature and time as stated earlier, followed by the visual inspection of the plates for signs of microbial growth.

B. subtilis = assay: Antimicrobial serial tube dilution, MIC and MBC; type: cell-based, Bacillus subtilis MTCC 2063; conditions: for B. subtilis MIC: 24 h at 37 ± 2 °C; for MIC / MBC: Bacillus subtilis; for MIC: 24 h, read-out: B. subtilis MIC; for MBC: read-out: B. subtilis MBC
Procedure: as §1

[1] = DPPH scavenging antioxidant assay
Procedure: The derivatives (C18–C27) were assessed for their antioxidant potential in the presence of the stable free radical DPPH using ascorbic acid as the standard compound [36, 37]. […] The total volume of 200 µl was used in each well for each concentration of the test and standard drug containing 0.004 µg DPPH. The assay was performed in triplicate at all concentrations of each sample and standard compound. DPPH solutions in methanol at the same concentration without test drugs were used as the control. Each concentration of the sample and standard has a different blank. To minimize evaporation, the plate was covered with the lid and wrapped in aluminium foil and kept in the dark place in order to protect the DPPH radical from degradation by light and left for 30 min. After 30 min of incubation, the plate was kept in ELISA reader to measure the absorbance values at 517 nm. The experiment was performed in triplicate. The antioxidant activity of each sample was then calculated as per cent inhibition of DPPH according to the following equation: %decolourationofDPPH=ControlAbs-SampleAbs×100/ControlAbs

C. albicans = assay: Antimicrobial serial tube dilution, MIC and MFC; type: cell-based, Candida albicans MTCC 227; conditions: for C. albicans MIC: 48 h at 37 ± 2 °C; for MIC / MFC: Candida albicans; for MIC: 48 h, read-out: C. albicans MIC; for MFC: read-out: C. albicans MFC
Procedure: as §1

E. coli = assay: Antimicrobial serial tube dilution, MIC and MBC; type: cell-based, Escherichia coli MTCC 1652; conditions: for E. coli MIC: 24 h at 37 ± 2 °C; for MIC / MBC: Escherichia coli; for MIC: 24 h, read-out: E. coli MIC, 24 h at 37 ± 2 °C; for MBC: read-out: E. coli MBC
Procedure: as §1

S. aureus = assay: Antimicrobial serial tube dilution, MIC and MBC; type: cell-based, Staphylococcus aureus MTCC 2901; conditions: for S. aureus MIC: 24 h at 37 ± 2 °C; for MIC / MBC: Staphylococcus aureus; for MIC: 24 h, read-out: S. aureus MIC; for MBC: read-out: S. aureus MBC
Procedure: as §1

S. typhi = assay: Antimicrobial serial tube dilution, MIC and MBC; type: cell-based, Salmonella typhi MTCC 3216; conditions: for S. typhi MIC: 24 h at 37 ± 2 °C; for MIC / MBC: Salmonella enterica, TYPHI; for MIC: 24 h, read-out: S. typhi MIC; for MBC: read-out: S. typhi MBC
Procedure: as §1

A. fumigatus = assay: Antimicrobial serial tube dilution, MIC and MFC; type: cell-based, Aspergillus fumigatus MTCC 2584; conditions: for A. fumigatus MIC: 7 d at 25 ± 2 °C; for MIC / MFC: Aspergillus fumigatus; for MIC: 168 h, read-out: A. fumigatus MIC; for MFC: read-out: A. fumigatus MFC
Procedure: as §1

| Compound | IC50 DPPH [1] [µg/mL] | % inhibition of DPPH ([1]; 1.56 µg ml^−1) [%] | % inhibition of DPPH ([1]; 3.12 µg ml^−1) [%] | % inhibition of DPPH ([1]; 6.25 µg ml^−1) [%] | % inhibition of DPPH ([1]; 12.5 µg ml^−1) [%] | % inhibition of DPPH ([1]; 25 µg ml^−1) [%] | % inhibition of DPPH ([1]; 50 µg ml^−1) [%] | % inhibition of DPPH ([1]; 100 µg ml^−1) [%] | E. coli MIC (E. coli) [µg/mL] | MIC (B. cereus) [µg/mL] | MBC (B. cereus) [µg/mL] | MIC (B. subtilis) [µg/mL] | MBC (B. subtilis) [µg/mL] | MIC (C. albicans) [µg/mL] | MFC (C. albicans) [µg/mL] | melting point [°C] | MIC (E. coli) [µg/mL] | MBC (E. coli) [µg/mL] | MIC (S. aureus) [µg/mL] | MBC (S. aureus) [µg/mL] | other results |
| --- | --- | --- | --- | --- | --- | --- | --- | --- | --- | --- | --- | --- | --- | --- | --- | --- | --- | --- | --- | --- | --- |
| O=C(/C=C/c1ccc(Cl)cc1Cl)c1ccc(O)cc1 [Chalcone, (E)-3-(2,4-dichlorophenyl)-1-(4-hydroxyphenyl)prop-2-en-1-one] | 76.77 (≈ 262 µM) | 6.54 | 8.12 | 10.76 | 16.90 | 21.57 | 34.56 | 51.80 | 15.62 |  |  |  |  |  |  |  |  |  |  |  | B. cereus MBC (B. cereus): 62.5 µg/mL; B. cereus MIC (B. cereus): 62.5 µg/mL; B. subtilis MBC (B. subtilis): 62.5 µg/mL; B. subtilis MIC (B. subtilis): 62.5 µg/mL; C. albicans MFC (C. albicans): 125 µg/mL; C. albicans MIC (C. albicans): 125 µg/mL; E. coli MBC (E. coli): 31.25 µg/mL; S. aureus MBC (S. aureus): 62.5 µg/mL; S. aureus MIC (S. aureus): 31.25 µg/mL; S. typhi MBC (S. typhi): 62.5 µg/mL; S. typhi MIC (S. typhi): 31.25 µg/mL; A. fumigatus MFC (A. fumigatus): 125 µg/mL; A. fumigatus MIC (A. fumigatus): 125 µg/mL |
| O=C(/C=C/c1ccc(Cl)cc1Cl)c1ccc(O)c(N=Nc2cccc(Cl)c2Cl)c1 [Compound C-18, (2E)-3-(2,4-Dichlorophenyl)-1-(3-((2,3-dichlorophenyl)diazenyl)-4-hydroxyphenyl)prop-2-en-1-one] | > 100 | 7.21 | 8.76 | 9.37 | 12.35 | 15.68 | 21.79 | 31.98 | 15.62 | 31.2 (≈ 67 µM) | 125 (≈ 268 µM) | 125 (≈ 268 µM) | 125 (≈ 268 µM) | 125 (≈ 268 µM) | 125 (≈ 268 µM) | 110 to 112 | 7.81 to 15.6 (≈ 16.8 to 33.5 µM) | 62.5 (≈ 134 µM) | 31.2 (≈ 67 µM) | 125 (≈ 268 µM) | MIC (S. typhi): 31.2 µg/mL (≈ 67 µM); MBC (S. typhi): 125 µg/mL (≈ 268 µM); MIC (A. fumigatus): 125 µg/mL (≈ 268 µM); MFC (A. fumigatus): 125 µg/mL (≈ 268 µM) |
| O=C(/C=C\c1ccccc1[N+](=O)[O-])c1cccc(N=Nc2cccc(Cl)c2Cl)c1O [Compound C-20, (2Z)-1-(3-((2,3-Dichlorophenyl)diazenyl)-2-hydroxyphenyl)-3-(2-nitrophenyl)prop-2-en-1-one] | > 100 | 8.15 | 9.87 | 10.51 | 14.32 | 18.96 | 20.76 | 29.39 |  | 125 (≈ 283 µM) | 125 (≈ 283 µM) | 62.5 (≈ 141 µM) | 125 (≈ 283 µM) | 125 (≈ 283 µM) | 250 (≈ 565 µM) | 105 to 107 | 125 (≈ 283 µM) | 250 (≈ 565 µM) | 125 (≈ 283 µM) | 125 (≈ 283 µM) | MIC (S. typhi): 125 µg/mL (≈ 283 µM); MBC (S. typhi): 125 µg/mL (≈ 283 µM); MIC (A. fumigatus): 125 µg/mL (≈ 283 µM); MFC (A. fumigatus): 125 µg/mL (≈ 283 µM) |
| O=C(/C=C\c1cc(Br)ccc1O)c1ccc(N=Nc2c(O)cccc2O)cc1 [Compound C-21, (2Z)-3-(5-Bromo-2-hydroxyphenyl)-1-(4-((2,6-dihydroxyphenyl)diazenyl)phenyl)prop-2-en-1-one] |  | 8.71 | 12.99 | 20.98 | 25.71 | 30.75 | 35.78 | 39.56 | 15.62 | 62.5 (≈ 142 µM) | 62.5 (≈ 142 µM) | 31.2 (≈ 71.1 µM) | 62.5 (≈ 142 µM) | 62.5 (≈ 142 µM) | 125 (≈ 285 µM) | 155 to 157 | 7.81 to 15.6 (≈ 17.8 to 35.6 µM) | 31.2 (≈ 71.1 µM) | 125 (≈ 285 µM) | 125 (≈ 285 µM) | MIC (S. typhi): 31.2 µg/mL (≈ 71.1 µM); MBC (S. typhi): 125 µg/mL (≈ 285 µM); MIC (A. fumigatus): 125 µg/mL (≈ 285 µM); MFC (A. fumigatus): 125 µg/mL (≈ 285 µM) |
| O=C(/C=C\c1cccc(Br)c1)c1cccc(N=Nc2cc(Cl)ccc2Cl)c1O [Compound C-26, (2Z)-3-(3-Bromophenyl)-1-(3-((2,5-dichlorophenyl)diazenyl)-2-hydroxyphenyl)prop-2-en-1-one] |  | 5.72 | 7.91 | 11.90 | 14.04 | 21.98 | 24.65 | 29.62 | 62.5 |  |  |  |  |  |  |  |  |  |  |  | B. cereus MBC (B. cereus): 250 µg/mL; B. cereus MIC (B. cereus): 250 µg/mL; B. subtilis MBC (B. subtilis): 62.5 µg/mL; B. subtilis MIC (B. subtilis): 62.5 µg/mL; log IC50 DPPH ([1]; Fig. 1): 1.349; C. albicans MFC (C. albicans): 125 µg/mL; C. albicans MIC (C. albicans): 125 µg/mL; E. coli MBC (E. coli): 125 µg/mL; S. aureus MBC (S. aureus): 31.25 µg/mL; S. aureus MIC (S. aureus): 7.81 µg/mL; S. typhi MBC (S. typhi): 62.5 µg/mL; S. typhi MIC (S. typhi): 15.62 µg/mL; A. fumigatus MFC (A. fumigatus): 125 µg/mL; A. fumigatus MIC (A. fumigatus): 125 µg/mL |
